Assay results: patent US20100260683A1, “THERMOLABILE LIPOSOME WITH CONTROLLED RELEASE TEMPERATURE” (MAX-PLANCK-GESELLSCHAFT ZUR FORDERUNG DER WISSENCHAFTEN E.V., priority 2001, published 2010)

Assay: Main transition temperature (TM) of phosphatidylcholines
Type: physicochemical
Details: acyl chains at positions 1 and 2 of glycero-3-phosphocholine or 1 and 3 of glycero-2-phosphocholine
Description: The abovementioned preferred composition of the liposome according to the invention can be made to measure for other temperature ranges by choice of components having the main transition temperature suitable in each case. In table 1, the main transition temperatures (TM) of phosphatidylcholines are indicated whose main transition temperature lies in the range from 0 to 80° C. The main transition temperatures are recognizable as from the table, depending on the chain length and the distribution over the positions 1 and 2 of glycero-3-phosphocholine or 1 and 3 of glycero-2-phosphocholine.

Row | Structure (SMILES) | TM (main transition temperature)
1 | CCCCCCCCCCCCCCCC(=O)OC[C@H](COP(=O)([O-])OCC[N+](C)(C)C)OC(=O)CCCCCCCCCCCCC [1-palmitoyl-2-myristoyl-] | 27 °C
2 | CCCCCCCCCCCCCCCC(=O)OC[C@H](COP(=O)([O-])OCC[N+](C)(C)C)OC(=O)CCCCCCCCCCC [1-palmitoyl-2-lauroyl-] | 11 °C
3 | CCCCCCCCCCCCCCCCCC(=O)OC[C@H](COP(=O)([O-])OCC[N+](C)(C)C)OC(=O)CCCCCCCCCCC [1-stearoyl-2-lauroyl-] | 17 °C
4 | CCCCCCCCCCCCCCCCCC(=O)OCC(COC(=O)CCCCCCCCCCCCC)OP(=O)([O-])OCC[N+](C)(C)C (stereo not drawn) [1-stearoyl-3-myristoyl-] | 46 °C
5 | CCCCCCCCCCCCCCCC(=O)OCC(COC(=O)CCCCCCCCCCCCCCC)OP(=O)([O-])OCC[N+](C)(C)C [1,3-dipalmitoyl-] | 39 °C
6 | CCCCCCCC/C=C\CCCCCCCC(=O)O[C@H](COC(=O)CCCCCCCCCCCCCCCCC)COP(=O)([O-])OCC[N+](C)(C)C [1-stearoyl-2-oleoyl-] | 7 °C
7 | CCCCCCCCCCCCCCCC(=O)OC(COC(=O)CCCCCCCCCCCCC)COP(=O)([O-])OCC[N+](C)(C)C (stereo not drawn) [1-myristoyl-2-palmitoyl] | 37 °C
8 | CCCCCCCC/C=C\CCCCCCCC(=O)O[C@H](COC(=O)CCCCCCCCCCCCCCC)COP(=O)([O-])OCC[N+](C)(C)C [1-palmitoyl-2-oleoyl-] | 5 °C
9 | CCCCCCCCCCCCCC(=O)OC[C@H](COP(=O)([O-])OCC[N+](C)(C)C)OC(=O)CCCCCCCCCCCCC [1,2-dimyristoyl-] | 23 °C
10 | CCCCCCCCCCCCCC(=O)OCC(COC(=O)CCCCCCCCCCCCC)OP(=O)([O-])OCC[N+](C)(C)C [1,3-dimyristoyl-] | 19 °C

Other lines, results leading:

Row | TM (main transition temperature) | Structure (SMILES)
11 | 48 °C | CCCCCCCCCCCCCCCCCC(=O)OC[C@H](COP(=O)([O-])OCC[N+](C)(C)C)OC(=O)CCCCCCCCCCCCCCC [1-stearoyl-2-palmitoyl-]
12 | 41 °C | CCCCCCCCCCCCCCCC(=O)OCC(COP(=O)([O-])OCC[N+](C)(C)C)OC(=O)CCCCCCCCCCCCCCC (stereo not drawn) [1,2-dipalmitoyl-, 1,2-di-palmitoylglycero-3-phosphocholine]
13 | 53 °C | CCCCCCCCCCCCCCCCCC(=O)OCC(COC(=O)CCCCCCCCCCCCCCCCC)OP(=O)([O-])OCC[N+](C)(C)C [1,3-distearoyl-]
14 | 80 °C | CCCCCCCCCCCCCCCCCCCCCCCC(=O)OC[C@H](COP(=O)([O-])OCC[N+](C)(C)C)OC(=O)CCCCCCCCCCCCCCCCCCCCCCC [1,2-dilignoceroyl-]
15 | 56 °C | CCCCCCCCCCCCCCCCCC(=O)OCC(COP(=O)([O-])OCC[N+](C)(C)C)OC(=O)CCCCCCCCCCCCCCCCC (stereo not drawn) [1,2-distearoyl-, 1,2-distearoylglycero-3-phospho-choline]
16 | 33 °C | CCCCCCCCCCCCCCCCCC(=O)OC[C@H](COP(=O)([O-])OCC[N+](C)(C)C)OC(=O)CCCCCCCCCCCCC [1-stearoyl-2-myristoyl-]
17 | 42 °C | CCCCCCCCCCCCCCCCCC(=O)O[C@H](COC(=O)CCCCCCCCCCCCC)COP(=O)([O-])OCC[N+](C)(C)C [1-myristoyl-2-stearoyl-]
18 | 75 °C | CCCCCCCCCCCCCCCCCCCCCC(=O)OC[C@H](COP(=O)([O-])OCC[N+](C)(C)C)OC(=O)CCCCCCCCCCCCCCCCCCCCC [1,2-dibehenoyl-]
19 | 66 °C | CCCCCCCCCCCCCCCCCCCC(=O)OC[C@H](COP(=O)([O-])OCC[N+](C)(C)C)OC(=O)CCCCCCCCCCCCCCCCCCC [1,2-diarachinoyl-]
20 | 14 °C | CCCCCCCC/C=C\CCCCCCCC(=O)O[C@H](COC(=O)CCCCCCCCCCCCCCCCCCCCC)COP(=O)([O-])OCC[N+](C)(C)C [1-behenoyl-2-oleoyl-]
21 | 52 °C | CCCCCCCCCCCCCCCCCC(=O)O[C@H](COC(=O)CCCCCCCCCCCCCCC)COP(=O)([O-])OCC[N+](C)(C)C [1-palmitoyl-2-stearoyl-]
